The target of one experiment is T1, human D3R (Homo sapiens, UniProt P35462).
T1 construct: gene DRD3; full-length, stably expressed in CHO-K1 cells, membrane fraction
Nature of the experiment: [3H]spiperone displacement, CHO-K1 membranes. It counts as binding. Conditions: read-out: D3R pKi ± SEM ^b (converted). The text has this:
[3H]spiperone displacement, CHO-K1 membranes on human D3R

Another experiment deals with T2, human D2sR (D2shortR) (Homo sapiens, UniProt P14416).
T2 construct: gene DRD2; full-length short isoform stably expressed in CHO-K1 cells, membrane fraction
Nature of the experiment: [3H]spiperone displacement, CHO-K1 membranes. The format is binding. Conditions: read-out: D2sR pKi ± SEM ^b (converted). From the text: [3H]spiperone displacement, CHO-K1 membranes on human D2sR (D2shortR)

The values below come from article PMC11596355, “Virtual Screening Approaches to Identify Promising Multitarget-Directed Ligands for the Treatment of Autism Spectrum Disorder” (Molecules, 2024).

Structures are written as SMILES.

T1 sequence (P35462 whole entry): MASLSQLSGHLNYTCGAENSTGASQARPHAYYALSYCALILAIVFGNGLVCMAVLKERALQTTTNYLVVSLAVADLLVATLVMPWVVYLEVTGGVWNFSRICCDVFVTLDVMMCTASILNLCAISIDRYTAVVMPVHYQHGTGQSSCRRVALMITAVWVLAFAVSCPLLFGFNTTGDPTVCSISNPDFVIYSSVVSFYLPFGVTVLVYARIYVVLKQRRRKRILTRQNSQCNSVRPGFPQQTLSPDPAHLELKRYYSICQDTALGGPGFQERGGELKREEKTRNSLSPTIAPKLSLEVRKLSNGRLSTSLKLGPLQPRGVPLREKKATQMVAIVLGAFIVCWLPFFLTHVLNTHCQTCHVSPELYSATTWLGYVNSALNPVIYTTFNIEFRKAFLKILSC
T2 sequence (P14416 1-414 isoform P14416-2): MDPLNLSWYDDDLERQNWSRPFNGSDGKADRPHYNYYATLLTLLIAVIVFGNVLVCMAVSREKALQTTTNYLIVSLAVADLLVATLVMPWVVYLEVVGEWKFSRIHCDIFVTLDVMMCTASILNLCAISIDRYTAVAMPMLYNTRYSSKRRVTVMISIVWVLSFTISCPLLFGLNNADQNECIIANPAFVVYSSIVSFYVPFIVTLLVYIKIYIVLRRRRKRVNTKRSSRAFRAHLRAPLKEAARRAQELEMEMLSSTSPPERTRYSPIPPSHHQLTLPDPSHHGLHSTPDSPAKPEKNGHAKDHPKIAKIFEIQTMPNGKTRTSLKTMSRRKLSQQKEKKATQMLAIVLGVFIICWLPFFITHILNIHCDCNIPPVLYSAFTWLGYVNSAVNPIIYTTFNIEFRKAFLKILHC

Turning to `N=C(N)N(CCCCN1CCN(CCCCN(Cc2ccc(C(F)(F)F)cc2)C(=N)N)CC1)Cc1ccc(C(F)(F)F)cc1` [compound 30], the Ki at human D3R was 14.5 µM; at human D2sR (D2shortR), 0.759 µM.
